From paper PMC8560763, “Roles of metal ions in the selective inhibition of oncogenic variants of isocitrate dehydrogenase 1” (Communications Biology, 2021)
Where “and” joins values, the source holds several entries; their conditions need not be identical. Identical values can stand only once.

How the values were obtained:
wt IDH1 [1] = target: T1, wt IDH1 (Homo sapiens, UniProt O75874); assay: Absorbance assay: effect of metal ions on catalysis and inhibition of wt IDH1; format: biochemical; conditions: for inhibition by metal ion: wt IDH1, metal ions 10 mM in the presence of 10 mM Mg^2+
T1 construct: made in house; host or cells: Escherichia coli BL21(DE3) pLyS
Method: Inhibition assays of wt or R132H IDH1 with metal ions were conducted with a 12 min pre-incubation of metal ions (25 µL, final concentration 10 mM) and enzyme (25 µL) before the addition of substrate (25 µL) and cofactor (25 µL). […] The difference in absorbance, ΔA340, in the linear range of the reaction profile was converted to % residual activity with the DMSO control being the 100% residual activity reference.

wt IDH1 [2] = target: T1, wt IDH1; assay: Differential scanning fluorimetry (DSF) thermal shift, wt IDH1; format: binding; conditions: 50 mM Tris-HCl, pH 7.5; for thermal stabilisation (shift in Tm): wt IDH1, divalent metal ions (5 mM); for thermal stabilisation by cosubstrates: wt IDH1, 0.125—4 mM
Method: Thermal shift experiments were carried out using Sypro Orange dye and a CFX96 Touch^TM Real-Time PCR Detection System (Bio-Rad)[69]. […] The standard assay buffer contains 50 mM Tris-HCl at pH 7.5. Various concentrations of substrates were mixed with IDH1 for thermal stabilisation studies. […] Bio-Rad CFX Manager was used to determine the melting temperature, Tm.

wt IDH1 [3] = target: T1, wt IDH1; assay: Absorbance assay: kinetics of reductive reaction (2OG to isocitrate) by wt IDH1; format: biochemical
Method: (§1) All experiments were performed in (at least) triplicate.
(§2) KM values were determined by varying concentrations of the substrate/cofactor under investigation while maintaining the concentrations of other components using standard conditions. […] Graphs were fitted using GraphPad Prism to obtain kinetic parameters.

wt IDH1 [4] = target: T1, wt IDH1; assay: CPMG-edited 1H NMR ligand binding, wt IDH1; conditions: for binding to wt IDH1 / displacement of D-isocitrate from wt IDH1: without metal ions; for binding to wt IDH1: DSF and NMR; for weakening of D-isocitrate binding to wt IDH1: with Mg^2+ or Ca^2+ (10 mM); for displacement of D-isocitrate from wt IDH1: inhibitor 50 µM, D-isocitrate 50 µM, wt IDH1 6.25 µM
Method: Additional solvent presaturation was applied for 2 s. The assay mixture contains 160 µL of a 50 µM solution of the compound of interest ± 10 mM metal chloride salts in 50 mM Tris-D11-HCl in 90% H2O/10% D2O at pH 7.5. […] Data were processed with the TopSpin 3.1 software.

wt IDH1 [5] = target: T1, wt IDH1; assay: Non-denaturing protein MS, wt IDH1; format: binding; conditions: wt IDH1 dimer with two NADPHs bound
Method: Non-denaturing mass spectra were obtained using a quadrupole time-of-flight mass spectrometer (Synapt HD MS, Waters, Wilmslow, Manchester, UK)[71],[72]. […] Protein concentrations were measured using a Nanodrop spectrometer (Thermo Scientific™ NanoDrop™ One). […] The solution was then sprayed through a nozzle in a Nanomate chip at a spray voltage of 1.8–2.0 kV (spray backing gas pressure 0.8–1.0 psi, inlet pressure 3.8 mbar). […] For promoting collision-induced dissociation of the substrate from its complex with IDH1, a higher cone voltage (200 V) was used. The rest of the voltages and pressures in the mass spectrometer were adjusted for the best resolution and minimum fragmentation. Data collection and analysis were carried out using the Waters MassLynx software. Mass spectra were calibrated externally using the CsI solution to produce CsI cluster ions.

wt IDH1 [6] = target: T1, wt IDH1; assay: 1H NMR reaction monitoring, wt IDH1; format: biochemical; conditions: 1H NMR (700 MHz), NADP+, 10 mM MgCl2
Method: Reaction monitoring employed the same spectrometer with a 5-mm inverse TCI cryoprobe using 5 mm tubes (Norell). Data were recorded with a relaxation delay of 2 s and 32 scans, employing a pulse sequence with water suppression (^1H excitation sculpting suppression with perfect echo using a 2 ms Sinc selective inversion pulse).

wt IDH1 [7] = target: T1, wt IDH1; assay: Absorbance assay (NADPH, 340 nm): kinetics of oxidative reaction (isocitrate to 2OG) by wt IDH1; format: biochemical
Method: as §1, §2

[8] = wt IDH1, reductive reaction (2OG to isocitrate) with Mg^2+, 100 mM NaHCO3
[9] = wt IDH1, oxidative reaction with Mn^2+ (10 mM MnCl2)

T1 sequence (O75874 2-414): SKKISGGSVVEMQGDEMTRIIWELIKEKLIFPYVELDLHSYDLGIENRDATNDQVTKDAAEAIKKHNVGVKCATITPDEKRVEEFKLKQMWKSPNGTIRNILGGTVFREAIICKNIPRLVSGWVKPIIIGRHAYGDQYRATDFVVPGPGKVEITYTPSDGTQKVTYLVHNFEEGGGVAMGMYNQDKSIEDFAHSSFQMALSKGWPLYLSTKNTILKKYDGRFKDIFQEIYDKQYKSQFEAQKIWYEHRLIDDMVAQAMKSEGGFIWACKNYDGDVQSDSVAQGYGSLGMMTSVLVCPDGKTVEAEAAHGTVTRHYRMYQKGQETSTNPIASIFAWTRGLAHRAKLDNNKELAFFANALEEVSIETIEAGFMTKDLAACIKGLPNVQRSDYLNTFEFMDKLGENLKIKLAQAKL

[Cl][Cd][Cl] [Cd^2+, CdCl2]
inhibition by metal ion (wt IDH1 [1]): inhibitory

[Ca+2].[Cl-].[Cl-] [Ca^2+, CaCl2]
thermal stabilisation (shift in Tm) (wt IDH1 [2]): 3.2 °C | inhibition by metal ion (wt IDH1 [1]): inhibiting

NC(=O)C1=CN([C@@H]2O[C@H](COP(=O)(O)OP(=O)(O)OC[C@H]3O[C@@H](n4cnc5c(N)ncnc54)[C@H](OP(=O)(O)O)[C@@H]3O)[C@@H](O)[C@H]2O)C=CC1 [NADPH]
thermal stabilisation by cosubstrates (wt IDH1 [2]): stabilise | Velocity (wt IDH1 [3]; Fig. S2f, [NADPH] 31.25 μM): 0.06247 µM/s and 0.06738 µM/s and 0.04685 µM/s | Velocity (wt IDH1 [3]; Fig. S2f, [NADPH] 62.5 μM): 0.08774 µM/s and 0.07774 µM/s and 0.04633 µM/s | Velocity (wt IDH1 [3]; Fig. S2f, [NADPH] 250 μM): 0.1446 µM/s and 0.1585 µM/s and 0.1383 µM/s | Velocity (wt IDH1 [3]; Fig. S2f, [NADPH] 500 μM): 0.1648 µM/s and 0.2053 µM/s

O=C(O)CCC(=O)C(=O)O [2OG, 2-oxoglutarate]
Velocity (wt IDH1 [3]; Fig. S2e, [2OG] 312.5 μM): 0.04369 µM/s and 0.04159 µM/s and 0.04334 µM/s | Velocity (wt IDH1 [3]; Fig. S2e, [2OG] 625 μM): 0.08493 µM/s and 0.08598 µM/s and 0.07405 µM/s | Velocity (wt IDH1 [3]; Fig. S2e, [2OG] 2500 μM): 0.1446 µM/s and 0.1407 µM/s and 0.1265 µM/s | Velocity (wt IDH1 [3]; Fig. S2e, [2OG] 5000 μM): 0.1734 µM/s and 0.1435 µM/s and 0.1563 µM/s | Velocity (wt IDH1 [3]; Fig. S2e, [2OG] 10000 μM): 0.2051 µM/s and 0.2078 µM/s and 0.1434 µM/s | Km (wt IDH1 [3]; [8]): 1100 µM | Vmax (wt IDH1 [3]; [8]): 200 ± 16 nM/s | binding to wt IDH1 (wt IDH1 [4]): bind weakly

N#Cc1ccnc(N2C(=O)CC[C@H]2C(=O)N(c2cncc(F)c2)[C@H](C(=O)NC2CC(F)(F)C2)c2ccccc2Cl)c1 [AG-120, Ivosidenib]
binding stoichiometry (wt IDH1 [5]): one inhibitor per IDH1 dimer | weakening of D-isocitrate binding to wt IDH1 (wt IDH1 [4]): not | displacement of D-isocitrate from wt IDH1 (wt IDH1 [4]): partially displaced

O=C(O)C[C@H](C(=O)O)[C@@H](O)C(=O)O [L-isocitrate]
conversion by wt IDH1 (wt IDH1 [6]): neither a substrate nor an inhibitor

[Cl-].[Cl-].[Zn+2] [Zn^2+, ZnCl2]
inhibition by metal ion (wt IDH1 [1]): inhibitory

[Cl-].[Cl-].[Co+2] [Co^2+, CoCl2]
inhibition by metal ion (wt IDH1 [1]): inhibitory

[Cl][Mn][Cl] [MnCl2]
thermal stabilisation (shift in Tm) (wt IDH1 [2]): 2.9 °C | Velocity (wt IDH1 [7]; Fig. S3c, [MnCl2] 1.16415 μM): 0.08423 µM/s and 0.08186 µM/s and 0.1169 µM/s | Velocity (wt IDH1 [7]; Fig. S3c, [MnCl2] 1.86265 μM): 0.2269 µM/s and 0.1979 µM/s and 0.204 µM/s | Velocity (wt IDH1 [7]; Fig. S3c, [MnCl2] 4.76837 μM): 0.3206 µM/s and 0.2772 µM/s and 0.338 µM/s | Velocity (wt IDH1 [7]; Fig. S3c, [MnCl2] 7.62939 μM): 0.3506 µM/s and 0.2861 µM/s and 0.3632 µM/s | Velocity (wt IDH1 [7]; Fig. S3c, [MnCl2] 12.207 μM): 0.3785 µM/s and 0.3498 µM/s | Velocity (wt IDH1 [7]; Fig. S3c, [MnCl2] 19.5312 μM): 0.3561 µM/s and 0.3846 µM/s | Velocity (wt IDH1 [7]; Fig. S3c, [MnCl2] 31.25 μM): 0.3922 µM/s and 0.3424 µM/s and 0.3875 µM/s | Velocity (wt IDH1 [7]; Fig. S3c, [MnCl2] 50 μM): 0.4096 µM/s and 0.3893 µM/s and 0.3938 µM/s | kcat (wt IDH1 [7]; wt IDH1, oxidative reaction with Mn^2+): 81 ± 11 s⁻¹ | Km (wt IDH1 [7]; [9]): 2 ± 0.3 µM | Vmax (wt IDH1 [7]; [9]): 416 ± 13 nM/s | effect of metal ion on catalysis (wt IDH1 [1]; wt IDH1, metal ions 10 mM): promoted

[Cl-].[K+] [K^+]
inhibition by metal ion (wt IDH1 [1]): no effect

[Cl-].[Cs+] [Cs^+]
inhibition by metal ion (wt IDH1 [1]): no effect

[Cl-].[Cl-].[Sr+2] [Sr^2+, SrCl2]
inhibition by metal ion (wt IDH1 [1]): inhibiting

NC(=O)c1ccc[n+](C2OC(COP(=O)(O)OP(=O)([O-])OCC3OC(n4cnc5c(N)ncnc54)C(OP(=O)(O)O)C3O)C(O)C2O)c1 (stereo not shown) [NADP^+]
thermal stabilisation by cosubstrates (wt IDH1 [2]): stabilise | Velocity (wt IDH1 [7]; Fig. S2b, [NADP+] 9.375 μM): 0.05756 µM/s and 0.05177 µM/s and 0.06247 µM/s | Velocity (wt IDH1 [7]; Fig. S2b, [NADP+] 18.75 μM): 0.1158 µM/s and 0.09809 µM/s and 0.09195 µM/s | Velocity (wt IDH1 [7]; Fig. S2b, [NADP+] 37.5 μM): 0.1572 µM/s and 0.1441 µM/s and 0.152 µM/s | Velocity (wt IDH1 [7]; Fig. S2b, [NADP+] 75 μM): 0.1869 µM/s and 0.1658 µM/s and 0.2058 µM/s | Velocity (wt IDH1 [7]; Fig. S2b, [NADP+] 150 μM): 0.2085 µM/s and 0.1992 µM/s and 0.219 µM/s | Velocity (wt IDH1 [7]; Fig. S2b, [NADP+] 300 μM): 0.2511 µM/s and 0.2272 µM/s and 0.239 µM/s | Velocity (wt IDH1 [7]; Fig. S2b, [NADP+] 600 μM): 0.245 µM/s and 0.2229 µM/s and 0.192 µM/s | Velocity (wt IDH1 [7]; Fig. S2b, [NADP+] 1200 μM): 0.2522 µM/s and 0.2318 µM/s and 0.2402 µM/s | Velocity (wt IDH1 [7]; Fig. S2b, [NADP+] 2400 μM): 0.2325 µM/s and 0.2464 µM/s and 0.2378 µM/s | Velocity (wt IDH1 [7]; Fig. S3b, MnCl2 as metal, [NADP+] 2.34375 μM): 0.01474 µM/s and 0.01079 µM/s and 0.008423 µM/s | Velocity (wt IDH1 [7]; Fig. S3b, MnCl2 as metal, [NADP+] 4.6875 μM): 0.04185 µM/s and 0.03843 µM/s and 0.02737 µM/s | Velocity (wt IDH1 [7]; Fig. S3b, MnCl2 as metal, [NADP+] 9.375 μM): 0.08765 µM/s and 0.07107 µM/s and 0.0637 µM/s | Velocity (wt IDH1 [7]; Fig. S3b, MnCl2 as metal, [NADP+] 18.75 μM): 0.1629 µM/s and 0.1316 µM/s and 0.1234 µM/s | Velocity (wt IDH1 [7]; Fig. S3b, MnCl2 as metal, [NADP+] 37.5 μM): 0.2419 µM/s and 0.1971 µM/s and 0.1732 µM/s | Velocity (wt IDH1 [7]; Fig. S3b, MnCl2 as metal, [NADP+] 75 μM): 0.3032 µM/s and 0.278 µM/s and 0.2851 µM/s | Velocity (wt IDH1 [7]; Fig. S3b, MnCl2 as metal, [NADP+] 150 μM): 0.3353 µM/s and 0.3245 µM/s and 0.3419 µM/s | Velocity (wt IDH1 [7]; Fig. S3b, MnCl2 as metal, [NADP+] 300 μM): 0.3651 µM/s

[Ba+2].[Cl-].[Cl-] [Ba^2+, BaCl2]
inhibition by metal ion (wt IDH1 [1]): inhibiting

O=C(O)CCC(O)C(=O)O (stereo not shown) [2HG, 2-hydroxyglutarate]
binding to wt IDH1 (wt IDH1 [4]): not observed to bind

COc1c(C)cc(NC(=O)c2nn(Cc3ccc(F)cc3)c3c2CN(C(=O)c2ccc[nH]2)C[C@]3(C)C(N)=O)cc1C [GSK864]
binding stoichiometry (wt IDH1 [5]): two inhibitors per IDH1 dimer | weakening of D-isocitrate binding to wt IDH1 (wt IDH1 [4]): not | displacement of D-isocitrate from wt IDH1 (wt IDH1 [4]): partially displaced

[Cl-].[Li+] [Li^+]
inhibition by metal ion (wt IDH1 [1]): no effect

O=C(O)CNC(=O)C(=O)O [NOG, N-oxalylglycine]
binding to wt IDH1 (wt IDH1 [4]): bind weakly

[Cl][Ni][Cl] [Ni^2+, NiCl2]
inhibition by metal ion (wt IDH1 [1]): inhibitory

[Na+] [Na^+]
inhibition by metal ion (wt IDH1 [1]): no effect

O=C(O)CC(C(=O)O)C(O)C(=O)O (racemic) [DL-isocitrate]
Km (wt IDH1 [7]; wt IDH1, oxidative reaction with Mg^2+ (10 mM MgCl2)): 38 ± 6 µM | Km (wt IDH1 [7]; [9]): 35 ± 4 µM
